Patent US20090118375A1, “Optically active phthalamides” (priority 2004, published 2009)

Assays:
Spodoptera frugiperda = Spodoptera frugiperda test (spray application); assay type: in vivo; details: topical, 168 h, spray on maize leaf slices, after 7 d, read-out: Kill rate in % after 7 d
Protocol: Spodoptera frugiperda Test (Spray Application)
(§1) To produce a suitable preparation of active compound, 1 part by weight of active compound is mixed with the stated amounts of solvent and emulsifier, and the concentrate is diluted with emulsifier-containing water to the desired concentration.
Maize leave slices (Zea mays) are treated by being sprayed with the preparation of the active compound of the desired concentration and are infested with caterpillars of the fall army worm (Spodoptera frugiperda) after the leaves have dried.
(§2) After the specified period of time, the mortality in % is determined. 100% means that all the […] have been killed; 0% means that none of the […] have been killed.

Phaedon cochleariae = assay: Phaedon test (spray application); assay type: in vivo; details: topical, 168 h, spray on Chinese cabbage leaves, after 7 d, read-out: Kill rate in % after 7 d
Protocol: Phaedon Test (Spray Application) [table] To produce a suitable preparation of active compound, 1 part by weight of active compound is mixed with the stated amounts of solvent and emulsifier, and the concentrate is diluted with emulsifier-containing water to the desired concentration. Chinese cabbage leaves (Brassica pekinensis) are treated by being sprayed with the preparation of the active compound of the desired concentration and are infested with mustard beetle larvae (Phaedon cochleariae) after the leaves have dried.

Heliothis armigera = Heliothis armigera test; assay type: in vivo; details: Helicoverpa armigera, 168 h, soybean shoots dipped, after 7 d, read-out: Kill rate in % after 7 d
Protocol: as §1
Soybean shoots (Glycine max) are treated by being dipped into the preparation of active compound of the desired concentration and are populated with caterpillars of Heliothis armigera while the leaves are still moist.
(§3) After the desired period of time, the kill in % is determined. 100% means that all caterpillars have been killed; 0% means that none of the caterpillars have been killed.

Spodoptera exigua = Spodoptera exigua test; assay type: in vivo; details: 168 h, cabbage leaves dipped, after 7 d, read-out: Kill rate in % after 7 d
Protocol: as §1
Cabbage leaves (Brassica oleracea) are treated by being dipped into the preparation of active compound of the desired concentration and are populated with caterpillars of the army worm (Spodoptera exigua) while the leaves are still moist.
as §3

Myzus persicae = assay: Myzus test (spray application); assay type: in vivo; details: topical, 120 h, spray on Chinese cabbage leaves, after 5 d, read-out: Kill rate in % after 5 d
Protocol: Myzus Test (Spray Application)
as §1
Chinese cabbage leaves (Brassica pekinensis), which are infested by the green peach aphid (Myzus persicae), are treated by being sprayed with the preparation of the active compound of the desired concentration.
as §2

Structure (SMILES): C[C@@H](CS(C)(=O)=O)NC(=O)c1c(I)cccc1C(=O)Nc1ccc(C(F)(C(F)F)C(F)(F)F)cc1Br (stereo partly shown) [Compound 30]
- pest or weed control at 20 g/ha (Spodoptera frugiperda): 100%

Structure (SMILES): CSC[C@H](C)NC(=O)c1c(I)cccc1C(=O)Nc1ccc(C(F)(C(F)F)C(F)(F)F)cc1C (stereo partly shown) [Compound 10]
- pest or weed control at 20 g/ha (Phaedon cochleariae): 100%

Structure (SMILES): CSC[C@H](C)NC(=O)c1c(I)cccc1C(=O)Nc1ccc(C(C(F)F)C(F)(F)F)cc1Br (stereo partly shown) [Compound 22]
- pest or weed control at 20 g/ha (Phaedon cochleariae): 100%

Structure (SMILES): CC[S+]([O-])C[C@H](C)NC(=O)c1c(I)cccc1C(=O)Nc1ccc(C(C(F)F)C(F)(F)F)cc1C (stereo partly shown) [Compound 61]
- pest or weed control at 20 g/ha (Phaedon cochleariae): 100%

Structure (SMILES): CCS(=O)(=O)C[C@H](C)NC(=O)c1c(Br)cccc1C(=O)Nc1ccc(C(F)(C(F)F)C(F)(F)F)cc1Cl (stereo partly shown) [Compound 58]
- melting point: 118 °C
- pest or weed control at 20 ppm (Heliothis armigera): 100%

Structure (SMILES): CCSC[C@H](C)NC(=O)c1c(Br)cccc1C(=O)Nc1ccc(C(F)(C(F)F)C(F)(F)F)cc1Br (stereo partly shown) [Compound 68]
- melting point: 140 to 142 °C
- pest or weed control at 20 ppm (Heliothis armigera): 100%

Structure (SMILES): CCSC[C@H](C)NC(=O)c1c(Cl)cccc1C(=O)Nc1ccc(C(F)(C(F)(F)F)C(F)(F)Br)cc1C (stereo partly shown) [Compound 45]
- pest or weed control at 20 g/ha (Phaedon cochleariae): 100%

Structure (SMILES): CCS(=O)(=O)C[C@H](C)NC(=O)c1c(Cl)cccc1C(=O)Nc1ccc(C(C(F)F)C(F)(F)F)cc1Cl (stereo partly shown) [Compound 56]
- melting point: 116 °C
- pest or weed control at 20 ppm (Spodoptera exigua): 100%

Structure (SMILES): CCSC[C@H](C)NC(=O)c1c(I)cccc1C(=O)Nc1ccc(C(F)(C(F)F)C(F)(F)F)cc1Br (stereo partly shown) [Compound 6]
- pest or weed control at 20 g/ha (Spodoptera frugiperda): 100%

Structure (SMILES): CCSC[C@H](C)NC(=O)c1c(Cl)cccc1C(=O)Nc1ccc(C(F)(C(F)F)C(F)(F)F)cc1Cl (stereo partly shown) [Compound 50]
- pest or weed control at 20 g/ha (Phaedon cochleariae): 100%

Structure (SMILES): C[C@@H](CS(C)(=O)=O)NC(=O)c1c(I)cccc1C(=O)Nc1ccc(C(F)(C(F)F)C(F)(F)F)cc1Cl (stereo partly shown) [Compound 27]
- melting point: 184 °C
- pest or weed control at 20 ppm (Spodoptera exigua): 100%

Structure (SMILES): CSC[C@H](C)NC(=O)c1c(Br)cccc1C(=O)Nc1ccc(C(F)(C(F)(F)F)C(F)(F)Br)cc1C (stereo partly shown) [Compound 63]
- pest or weed control at 100 g/ha (Myzus persicae): 90%

Structure (SMILES): CSC[C@H](C)NC(=O)c1c(I)cccc1C(=O)Nc1ccc(C(F)(C(F)F)C(F)(F)F)cc1Br (stereo partly shown) [Compound 15]
- pest or weed control at 20 g/ha (Phaedon cochleariae): 100%

Structure (SMILES): C[C@@H](CS(C)(=O)=O)NC(=O)c1c(Cl)cccc1C(=O)Nc1ccc(C(C(F)F)C(F)(F)F)cc1Cl (stereo partly shown) [Compound 48]
- melting point: 198 °C
- pest or weed control at 20 ppm (Heliothis armigera): 100%

Structure (SMILES): CCS(=O)(=O)C[C@H](C)NC(=O)c1c(I)cccc1C(=O)Nc1ccc(C(F)(C(F)(F)F)C(F)(F)Br)cc1C (stereo partly shown) [Compound 2]
- pest or weed control at 20 g/ha (Phaedon cochleariae): 100%

Structure (SMILES): CCS(=O)(=O)C[C@H](C)NC(=O)c1c(I)cccc1C(=O)Nc1ccc(C(F)(C(F)F)C(F)(F)F)cc1Br (stereo partly shown) [Compound 34]
- melting point: 134 °C
- pest or weed control at 20 ppm (Spodoptera exigua): 100%

Structure (SMILES): Cc1cc(C(F)(C(F)(F)F)C(F)(F)Br)ccc1NC(=O)c1cccc(Br)c1C(=O)N[C@@H](C)CS(C)(=O)=O (stereo partly shown) [Compound 64]
- pest or weed control at 20 g/ha (Spodoptera frugiperda): 90%

Structure (SMILES): CCS(=O)(=O)C[C@H](C)NC(=O)c1c(I)cccc1C(=O)Nc1ccc(C(C(F)F)C(F)(F)F)cc1Cl (stereo partly shown) [Compound 26]
- pest or weed control at 100 g/ha (Myzus persicae): 100%
- pest or weed control at 20 g/ha (Spodoptera frugiperda): 100%

Structure (SMILES): CCS(=O)(=O)C[C@H](C)NC(=O)c1c(Br)cccc1C(=O)Nc1ccc(C(C(F)F)C(F)(F)F)cc1Cl (stereo partly shown) [Compound 59]
- melting point: 121 °C
- pest or weed control at 20 ppm (Spodoptera exigua): 100%

Structure (SMILES): CSC[C@H](C)NC(=O)c1c(I)cccc1C(=O)Nc1ccc(C(F)(C(F)F)C(F)(F)F)cc1F (stereo partly shown) [Compound 16]
- pest or weed control at 20 g/ha (Spodoptera frugiperda): 100%

Structure (SMILES): CSC[C@H](C)NC(=O)c1c(I)cccc1C(=O)Nc1ccc(C(F)(C(F)(F)F)C(F)(F)Br)cc1C (stereo partly drawn) [Compound 9, N^1-[4-(2-Bromo-1,2,2-trifluoro-1-trifluoromethyl-ethyl)-2-methyl-phenyl]-3-iodo-N^2-[(S)-1-methyl-2-methylsulfanyl-ethyl]-phthalamide]
- melting point: 124 °C
- pest or weed control at 20 ppm (Heliothis armigera): 100%

Structure (SMILES): Cc1cc(C(F)(C(F)(F)F)C(F)(F)Br)ccc1NC(=O)c1cccc(Cl)c1C(=O)N[C@@H](C)CS(C)(=O)=O (stereo partly shown) [Compound 43]
- pest or weed control at 100 g/ha (Myzus persicae): 100%

Structure (SMILES): Cc1cc(C(F)(C(F)F)C(F)(F)F)ccc1NC(=O)c1cccc(I)c1C(=O)N[C@@H](C)C[S+](C)[O-] (stereo partly shown) [Compound 66]
- pest or weed control at 100 g/ha (Myzus persicae): 100%
- pest or weed control at 20 g/ha (Spodoptera frugiperda): 100%

Structure (SMILES): CSC[C@H](C)NC(=O)c1c(I)cccc1C(=O)Nc1ccc(C(F)(C(F)F)C(F)(F)F)cc1Cl (stereo partly shown) [Compound 12]
- pest or weed control at 20 g/ha (Spodoptera frugiperda): 100%

Structure (SMILES): Cc1cc(C(F)(C(F)(F)F)C(F)(F)Br)ccc1NC(=O)c1cccc(I)c1C(=O)N[C@@H](C)C[S+](C)[O-] (stereo partly drawn) [Compound 65, N^1-[4-(2-Bromo-1,2,2-trifluoro-1-trifluoromethyl-ethyl)-2-methyl-phenyl]-3-iodo-N^2-[2-methanesulfinyl-(S)-1-methyl-ethyl]-phthalamide]
- pest or weed control at 200 g/ha (Spodoptera frugiperda; 200 g/ha): 100%

Structure (SMILES): CCS(=O)(=O)C[C@H](C)NC(=O)c1c(I)cccc1C(=O)Nc1ccc(C(C(F)F)C(F)(F)F)cc1C (stereo partly shown) [Compound 7]
- pest or weed control at 100 g/ha (Myzus persicae): 100%

Structure (SMILES): CSC[C@H](C)NC(=O)c1c(I)cccc1C(=O)Nc1ccc(C(C(F)F)C(F)(F)F)cc1F (stereo partly shown) [Compound 17]
- pest or weed control at 100 g/ha (Myzus persicae): 100%

Structure (SMILES): Cc1cc(C(C(F)F)C(F)(F)F)ccc1NC(=O)c1cccc(I)c1C(=O)N[C@@H](C)CS(C)(=O)=O (stereo partly shown) [Compound 20]
- melting point: 123 °C
- pest or weed control at 20 ppm (Heliothis armigera): 100%

Structure (SMILES): CCSC[C@H](C)NC(=O)c1c(Cl)cccc1C(=O)Nc1ccc(C(C(F)F)C(F)(F)F)cc1Cl (stereo partly shown) [Compound 51]
- pest or weed control at 100 g/ha (Myzus persicae): 100%

Structure (SMILES): CSC[C@H](C)NC(=O)c1c(I)cccc1C(=O)Nc1ccc(C(F)(C(F)F)C(F)(F)F)cc1C#N (stereo partly shown) [Compound 29]
- pest or weed control at 20 g/ha (Phaedon cochleariae): 83%

Structure (SMILES): CCS(=O)(=O)C[C@H](C)NC(=O)c1c(Br)cccc1C(=O)Nc1ccc(C(F)(C(F)(F)F)C(F)(F)Br)cc1C (stereo partly shown) [Compound 57]
- pest or weed control at 20 g/ha (Phaedon cochleariae): 100%

Structure (SMILES): CCS(=O)(=O)C[C@H](C)NC(=O)c1c(Cl)cccc1C(=O)Nc1ccc(C(F)(C(F)F)C(F)(F)F)cc1Cl (stereo partly shown) [Compound 55]
- melting point: 175 °C
- pest or weed control at 20 ppm (Heliothis armigera): 100%

Structure (SMILES): CCSC[C@H](C)NC(=O)c1c(Br)cccc1C(=O)Nc1ccc(C(F)(C(F)F)C(F)(F)F)cc1Cl (stereo partly shown) [Compound 53]
- melting point: 148 °C
- pest or weed control at 20 ppm (Heliothis armigera): 100%

Structure (SMILES): CCS(=O)(=O)C[C@H](C)NC(=O)c1c(Cl)cccc1C(=O)Nc1ccc(C(F)(C(F)(F)F)C(F)(F)Br)cc1C (stereo partly shown) [Compound 49]
- pest or weed control at 20 g/ha (Spodoptera frugiperda): 100%

Structure (SMILES): CSC[C@H](C)NC(=O)c1c(Cl)cccc1C(=O)Nc1ccc(C(F)(C(F)F)C(F)(F)F)cc1Cl (stereo partly shown) [Compound 41]
- pest or weed control at 20 g/ha (Phaedon cochleariae): 100%

Structure (SMILES): Cc1cc(C(C(F)F)C(F)(F)F)ccc1NC(=O)c1cccc(Cl)c1C(=O)N[C@@H](C)C[S+](C)[O-] (stereo partly shown) [Compound 62]
- pest or weed control at 100 g/ha (Myzus persicae): 100%

Structure (SMILES): CSC[C@H](C)NC(=O)c1c(Cl)cccc1C(=O)Nc1ccc(C(F)(C(F)F)C(F)(F)F)cc1C (stereo partly shown) [Compound 39]
- pest or weed control at 20 g/ha (Spodoptera frugiperda): 100%

Structure (SMILES): CSC[C@H](C)NC(=O)c1c(I)cccc1C(=O)Nc1ccc(C(C(F)F)C(F)(F)F)cc1Cl (stereo partly shown) [Compound 14]
- pest or weed control at 20 ppm (Heliothis armigera): 100%
- pest or weed control at 100 g/ha (Myzus persicae): 100%

Structure (SMILES): Cc1cc(C(C(F)F)C(F)(F)F)ccc1NC(=O)c1cccc(I)c1C(=O)N[C@@H](C)C[S+](C)[O-] (stereo partly shown) [Compound 60]
- pest or weed control at 20 g/ha (Phaedon cochleariae): 100%

Structure (SMILES): CSC[C@H](C)NC(=O)c1c(Cl)cccc1C(=O)Nc1ccc(C(C(F)F)C(F)(F)F)cc1C (stereo partly shown) [Compound 40]
- melting point: 105 °C
- pest or weed control at 20 ppm (Heliothis armigera): 100%
